Laboratory results from US20250034147A1, “MDM2 DEGRADERS AND USES THEREOF” (Kymera Therapeutics, Inc., priority 2021, published 2025).

How the values were obtained:
HiBiT-tagged MDM2 = target: T1, HiBiT-tagged MDM2 (Homo sapiens, UniProt Q00987); experiment: MDM2 HiBit HEK293T degradation; type: cell-based; conditions: HEK293T cells stably expressing C-terminally HiBiT-tagged MDM2; 4 h; read-out: MDM2 HiBit HEK293T degradation 4 h: Average external-Abs DC50
T1 construct: expressed in transfected cells
T1 sequence (Q00987 whole entry): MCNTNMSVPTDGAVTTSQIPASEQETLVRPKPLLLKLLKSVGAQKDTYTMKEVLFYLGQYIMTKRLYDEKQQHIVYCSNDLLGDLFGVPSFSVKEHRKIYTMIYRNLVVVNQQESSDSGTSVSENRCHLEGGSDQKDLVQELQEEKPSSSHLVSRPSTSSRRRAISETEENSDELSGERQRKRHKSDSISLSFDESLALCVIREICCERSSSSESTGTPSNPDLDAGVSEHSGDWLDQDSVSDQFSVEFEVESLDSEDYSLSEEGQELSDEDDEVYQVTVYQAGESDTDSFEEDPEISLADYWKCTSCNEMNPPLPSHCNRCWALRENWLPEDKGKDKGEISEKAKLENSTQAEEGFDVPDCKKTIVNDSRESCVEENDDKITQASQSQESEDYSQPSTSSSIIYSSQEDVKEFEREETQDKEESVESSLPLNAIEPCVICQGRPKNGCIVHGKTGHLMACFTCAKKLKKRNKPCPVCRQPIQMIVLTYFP
Outline: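 Degradation was measured in HEK293T cells stably expressing C-terminally HiBiT-tagged MDM2, a pool selected with 1 microgram/ml puromycin. A MDM2 tool degrader and HaloPROTAC3 served as positive controls. Potency is reported as DC50 in letter bins.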

RS411 cells = experiment: Cell Viability CTG Assay; type: cell-based; conditions: Homo sapiens, RS4-11, CellTiter Glo (CTG) cell viability, read-out: Average external-IC50
Outline: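 RS411 cells (1000/well) exposed 1 day at 37 °C to compound, 11-point 3-fold dilution from 10 μM top, 0.2% DMSO final. Viability read by CellTiter-Glo luminescence; IC50 reported as letter bins.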

DC50 (HiBiT-tagged MDM2) [nM]	IC50 (RS411 cells) [nM]	Structure (SMILES)
< 10	5 to 50	CN1C(C(=O)N[C@H]2CC[C@H](C(=O)N3CCC4(CC3)CN(c3ccc5c(c3)n(C)c(=O)n5C3CCC(=O)NC3=O)C4)CC2)[C@H](c2cccc(Cl)c2F)[C@]2(C(=O)Nc3cc(Cl)ccc32)C12CCCCC2 (some centres unmarked) [I-91]
< 10	< 5	Cn1c(=O)n(C2CCC(=O)NC2=O)c2ccc(C3CCN(C(=O)CN4CCC(NC(=O)[C@@H]5NC6(CCCCC6)[C@@]6(C(=O)Nc7cc(Cl)ccc76)[C@H]5c5cccc(Cl)c5F)CC4)CC3)cc21 (some centres unmarked) [I-27]
< 10	< 5	Cn1c(=O)n(C2CCC(=O)NC2=O)c2ccc(C3CCN(C[C@H]4CC[C@H](NC(=O)[C@@H]5NC6(CCC(C)(C)CC6)[C@@]6(C(=O)Nc7cc(Cl)ccc76)[C@H]5c5ccnc(Cl)c5F)CC4)CC3)cc21 (some centres unmarked) [I-25]
< 10	5 to 50	CC1(C)CCC2(CC1)N[C@@H](C(=O)N[C@H]1CC[C@H](CN3CCN(CCCc4cccn5c(N6CCC(=O)NC6=O)cnc45)CC3)CC1)[C@H](c1ccnc(Cl)c1F)[C@]21C(=O)Nc2cc(Cl)ccc21 [I-67]
< 10	< 5	Cn1c(=O)n(C2CCC(=O)NC2=O)c2ccc(CCN3CCN(C(=O)CN4CCC(NC(=O)[C@@H]5NC6(CCC(C)(C)CC6)[C@@]6(C(=O)Nc7cc(Cl)ccc76)[C@H]5c5ccnc(Cl)c5F)CC4)CC3)cc21 (stereo partly drawn) [I-32, (3′R,4′S,5′R)-6″-chloro-4′-(2-chloro-3-fluoropyridin-4-yl)-N-(1-(2-(4-(2-(1-(2,6-dioxopiperidin-3-yl)-3-methyl-2-oxo-2,3-dihydro-1H-benzo[d]imidazol-5-yl)ethyl)piperazin-1-yl)-2-oxoethyl)piperidin-4-yl)-4,4-dimethyl-2″-oxodispiro[cyclohexane-1,2′-pyrrolidine-3′,3″-indoline]-5′-carboxamide]
< 10	5 to 50	COc1cc2c(cc1OC(C)C)[C@H](c1ccc(Cl)cc1)N(c1ccc(N(C)CC3CCN(c4ccc5c(c4)n(C)c(=O)n5C4CCC(=O)NC4=O)CC3)cc1)C(=O)C2 (some centres unmarked) [I-62]
10 to 100	< 5	COc1cc2c(cc1OC(C)C)[C@H](c1ccc(Cl)cc1)N(c1ccc(N(C)CC3CCN(CCCCc4ccc5c(c4)n(C)c(=O)n5C4CCC(=O)NC4=O)CC3)cc1)C(=O)C2 (some centres unmarked) [I-4]
